Earlier results on two compounds are cited in patent US20090098202A1, “Extended Release Formulation” (BOEHRINGER INGELHEIM INTERNATIONAL GMBH, priority 2006, published 2009).

The structures appear in SMILES notation. Structures can show the parent of a compound that is named as a salt.

Assay in series [1]: not given
The source holds these as a separate data set.

For series [2] the following is noted: in the elderly.

For the compound `CCCN[C@H]1CCc2nc(N)sc2C1` [Pramipexole dihydrochloride monohydrate, pramipexole dihydrochloride monohydrate], the “solubility in buffer media” value (between pH 2 and pH 7.4) is reported as “above 10 mg/ml”. The Water solubility entry (water) is “more than 20 mg/ml”.
Regarding `CCCN[C@H]1CCc2nc(N)sc2C1` [Pramipexole, (S)-2-Amino-4,5,6,7-tetrahydro-6-(propylamino)benzothiazole], the stability in solution entry in series [1] (in solution, light) was “light sensitive”. Also, the “stability in the solid state” value in series [1] (solid state) is reported as “very stable”. Also, the “elimination half-life (t1/2[h])” value in series [2] was 12 h.
